± gives the expanded uncertainty stated by the source.
Conditions: Liquid; for vapor or sublimation pressure: Closed cell (Static) method; for mass density: 358 K, Vibrating tube method

With `FC(F)=C(F)C(F)(F)F` [hexafluoropropene] the “vapor or sublimation pressure” value (357.06 K) was 3017.5 ± 5.3 kPa, the “vapor or sublimation pressure” value (357.27 K) was 3031 ± 5 kPa and the “vapor or sublimation pressure” value (357.47 K) was 3044.2 ± 5.4 kPa. The “vapor or sublimation pressure” value (357.56 K) was 3050.4 ± 5.4 kPa, the mass density (3077.4 kPa) was 720.16 ± 5.3 kg/m3 and the mass density (3079.5 kPa) was 727.89 ± 4.8 kg/m3. It also gave a mass density (3081.5 kPa) of 734.5 ± 4.5 kg/m3, a mass density (3083.8 kPa) of 736.72 ± 4.4 kg/m3 and a mass density (3086 kPa) of 740.82 ± 4.3 kg/m3. It also gave a mass density (3088.2 kPa) of 744.57 ± 4.6 kg/m3, a mass density (3109.3 kPa) of 770.42 ± 3.6 kg/m3 and a mass density (3111.5 kPa) of 772.98 ± 3.5 kg/m3. For the same compound, the mass density (3116.7 kPa) was 777.53 ± 3.4 kg/m3, the mass density (3119.3 kPa) was 780.08 ± 3.2 kg/m3 and the mass density (3122.7 kPa) was 783.21 ± 3.2 kg/m3. For the same compound, the mass density (3129.1 kPa) was 787.86 ± 3 kg/m3, the mass density (3135.8 kPa) was 792.11 ± 2.7 kg/m3 and the mass density (3142.4 kPa) was 796.64 ± 2.7 kg/m3. For the same compound, the mass density (3148.6 kPa) was 799.79 ± 2.5 kg/m3, the mass density (3156.4 kPa) was 804.75 ± 2.4 kg/m3 and the mass density (3177.8 kPa) was 815.22 ± 2.1 kg/m3. It also gave a mass density (3185.3 kPa) of 818.23 ± 2 kg/m3, a mass density (3192.2 kPa) of 821.21 ± 2 kg/m3 and a mass density (3200.1 kPa) of 824.15 ± 1.9 kg/m3. The mass density (3210.8 kPa) was 828.42 ± 1.9 kg/m3, the mass density (3221.1 kPa) was 831.96 ± 1.7 kg/m3 and the mass density (3231.6 kPa) was 835.41 ± 1.7 kg/m3. It also gave a mass density (3241.7 kPa) of 838.72 ± 1.7 kg/m3, a mass density (3252.2 kPa) of 841.71 ± 1.6 kg/m3 and a mass density (3262.8 kPa) of 844.89 ± 1.6 kg/m3. It also gave a mass density (3273.9 kPa) of 847.83 ± 1.6 kg/m3, a mass density (3295.3 kPa) of 853.38 ± 1.5 kg/m3 and a mass density (3306 kPa) of 855.88 ± 1.5 kg/m3. For the same compound, the mass density (3329 kPa) was 860.99 ± 1.4 kg/m3, the mass density (3350.7 kPa) was 865.7 ± 1.4 kg/m3 and the mass density (3372.9 kPa) was 869.87 ± 1.4 kg/m3. For the same compound, the mass density (3394.9 kPa) was 874.14 ± 1.3 kg/m3, the mass density (3416.1 kPa) was 877.89 ± 1.3 kg/m3 and the mass density (3438.3 kPa) was 881.69 ± 1.3 kg/m3. The mass density (3460.7 kPa) was 885.32 ± 1.3 kg/m3, the mass density (3482.9 kPa) was 888.76 ± 1.2 kg/m3 and the mass density (3504.8 kPa) was 892.14 ± 1.2 kg/m3. For the same compound, the mass density (3528.7 kPa) was 895.48 ± 1.2 kg/m3, the mass density (3550.1 kPa) was 898.37 ± 1.2 kg/m3 and the mass density (3572 kPa) was 901.37 ± 1.2 kg/m3. For the same compound, the mass density (3593.3 kPa) was 903.96 ± 1.2 kg/m3, the mass density (3626 kPa) was 907.95 ± 1.2 kg/m3 and the mass density (3637.5 kPa) was 909.42 ± 1.2 kg/m3. It also gave a mass density (3650.1 kPa) of 910.79 ± 1.2 kg/m3, a mass density (3672 kPa) of 913.13 ± 1.2 kg/m3 and a mass density (3692.4 kPa) of 915.48 ± 1.2 kg/m3. It also gave a mass density (3737.5 kPa) of 920.3 ± 1.1 kg/m3, a mass density (3781.6 kPa) of 924.71 ± 1.1 kg/m3 and a mass density (3805.3 kPa) of 927.04 ± 1.1 kg/m3. The mass density (3827.1 kPa) was 929.16 ± 1.1 kg/m3, the mass density (3849.3 kPa) was 931.26 ± 1.1 kg/m3 and the mass density (3870.8 kPa) was 933.33 ± 1.1 kg/m3. It also gave a mass density (3892.8 kPa) of 935.23 ± 1.1 kg/m3, a mass density (3914.1 kPa) of 937.13 ± 1.1 kg/m3 and a mass density (3959.7 kPa) of 940.96 ± 1.1 kg/m3. It also gave a mass density (3983.8 kPa) of 943.01 ± 1.1 kg/m3, a mass density (4012.7 kPa) of 945.18 ± 1.1 kg/m3 and a mass density (4046.1 kPa) of 947.77 ± 1.1 kg/m3. It also gave a mass density (4078.7 kPa) of 950.34 ± 1.1 kg/m3, a mass density (4111.6 kPa) of 952.85 ± 1.1 kg/m3 and a mass density (4143.9 kPa) of 955.16 ± 1.1 kg/m3. It also gave a mass density (4176.6 kPa) of 957.49 ± 1.1 kg/m3.

Reference: the NIST ThermoML archive (doi:10.1021/je900596d)
